Earlier results, collected in patent publication US11622991B2, “Protocol for treatment of lupus nephritis” (Aurinia Pharmaceuticals Inc., priority 2017, dated 2023).

Tested on: lupus nephritis
Conditions: standard of care for LN; cited from earlier work

Structure (SMILES)	partial remission, cases
O=P1(N(CCCl)CCCl)NCCCO1 (centres unmarked) [cyclophosphamide]	approximately 50%
COc1c(C)c2c(c(O)c1C/C=C(\C)CCC(=O)OCCN1CCOCC1)C(=O)OC2 [mycophenolate mofetil]	approximately 50%
